Measured values from PMC4167698, “Fatty Acid Esters of Phloridzin Induce Apoptosis of Human Liver Cancer Cells through Altered Gene Expression” (PLoS ONE, 2014).

Legend:
HepG2 cells = experiment: MTS cell proliferation assay, HepG2; assay type: cell-based, human; settings: Homo sapiens, MTS
Experimental: (§1) Cell viability was determined by using the MTS assay. In brief, HepG2 cells (5×10^3 cells/100 µL/well), MDA-MB-231 (5×10^3 cells/100 µL/well), THP-1 (25×10^3/100 µL/well), normal human and rat hepatocytes (1×10^4 cells/100 µL/well) were plated in triplicate, in a 96 well sterile flat bottom tissue culture plates. […] Thereby, cells were exposed to various concentrations (0.1, 1, 10, 25, 50, 75, 100 µM) of each treatment. Controls consist of cells with media containing DMSO (<0.5%), test blank wells contained the test compound in media with no cells and blank wells contained media with no cells. After additional 3, 6, 12, 18 or 24 h, 20 µL of the MTS reagent in combination with the electron coupling agent, phenazine methosulfate were added to the wells and cells were incubated in a humidified incubator for 3 h. Absorbance at 490 nm (OD490) was measured by using a Flurostar Optima microplate reader (BMG Labtech, Cary, NC, USA) to obtain the number of viable cells relative to the control population. Percentage of viability of the test compound treated cells are expressed as percentage compared to control (<0.5% DMSO). […] The selective index (SI) of the fatty acid esters of phloridzin is defined as the ratio of cytotoxicity (EC50 values) on normal HP-F cells to solid cancer HepG2, MDA-MB-231 cells (SI = EC50 on HP-F cells/EC50 on solid cancer cells). Samples with SI values greater than three were considered to have high selectivity towards cancer cells.

MDA-MB-231 cells = experiment: MTS cell proliferation assay, MDA-MB-231; assay type: cell-based, human; settings: Homo sapiens, MTS
Experimental: as §1

THP-1 cells = experiment: MTS cell proliferation assay, THP-1; assay type: cell-based, human; settings: Homo sapiens, MTS
Experimental: as §1

[1] = tested on: normal human hepatocytes (HP-F); experiment: MTS cell viability assay, normal human hepatocytes; assay type: cell-based; settings: Hepatocyte, 24 h
Experimental: as §1

Row | EC50 (HepG2 cells; HepG2, 3 h) [µM] | EC50 (HepG2 cells; HepG2, 6 h) [µM] | EC50 (HepG2 cells; HepG2, 12 h) [µM] | EC50 (HepG2 cells; HepG2, 18 h) [µM] | EC50 (HepG2 cells; HepG2, 24 h) [µM] | EC50 (MDA-MB-231 cells; MDA-MB-231, 3 h) [µM] | EC50 (MDA-MB-231 cells; MDA-MB-231, 6 h) [µM] | EC50 (MDA-MB-231 cells; MDA-MB-231, 12 h) [µM] | EC50 (MDA-MB-231 cells; MDA-MB-231, 18 h) [µM] | EC50 (MDA-MB-231 cells; MDA-MB-231, 24 h) [µM] | EC50 (THP-1 cells; THP-1, 3 h) [µM] | EC50 (THP-1 cells; THP-1, 6 h) [µM] | EC50 (THP-1 cells; THP-1, 12 h) [µM] | EC50 (THP-1 cells; THP-1, 18 h) [µM] | EC50 (THP-1 cells; THP-1, 24 h) [µM] | Compound | EC50 [1] [µM]
1 | > 100 | > 100 | > 100 | > 100 | > 100 | > 100 | > 100 | > 100 | > 100 | > 100 | > 100 | > 100 | > 100 | > 100 | > 100 | CCCCC/C=C\C/C=C\CCCCCCCC(=O)O [Linoleic acid, linoleic acid] | > 100
2 |  |  |  |  |  | > 100 | > 100 | 9.6 ± 0.2 | 5.9 ± 0.3 | 4.1 ± 0.1 |  |  |  |  |  | COc1cccc2c1C(=O)c1c(O)c3c(c(O)c1C2=O)C[C@@](O)(C(=O)CO)C[C@@H]3O[C@H]1C[C@H](N)[C@H](O)[C@H](C)O1 [Doxorubicin, doxorubicin] | 
3 | > 100 | > 100 | > 100 | > 100 | > 100 | > 100 | > 100 | > 100 | > 100 | > 100 | > 100 | > 100 | > 100 | > 100 | > 100 | CC/C=C\C/C=C\C/C=C\C/C=C\C/C=C\CCCC(=O)O [EPA, eicosapentaenoic acid] | > 100

Row | Compound | EC50 (HepG2 cells; HepG2, 3 h) [µM] | EC50 (HepG2 cells; HepG2, 6 h) [µM] | EC50 (HepG2 cells; HepG2, 12 h) [µM] | EC50 (HepG2 cells; HepG2, 18 h) [µM] | EC50 (HepG2 cells; HepG2, 24 h) [µM] | EC50 (MDA-MB-231 cells; MDA-MB-231, 3 h) [µM] | EC50 (MDA-MB-231 cells; MDA-MB-231, 6 h) [µM] | EC50 (MDA-MB-231 cells; MDA-MB-231, 12 h) [µM] | EC50 (MDA-MB-231 cells; MDA-MB-231, 18 h) [µM] | EC50 (MDA-MB-231 cells; MDA-MB-231, 24 h) [µM] | EC50 (THP-1 cells; THP-1, 3 h) [µM] | EC50 (THP-1 cells; THP-1, 6 h) [µM] | EC50 (THP-1 cells; THP-1, 12 h) [µM] | EC50 (THP-1 cells; THP-1, 18 h) [µM] | EC50 (THP-1 cells; THP-1, 24 h) [µM] | EC50 [1] [µM]
4 | COc1cccc2c1C(=O)c1c(O)c3c(c(O)c1C2=O)C[C@@](O)(C(C)=O)C[C@@H]3O[C@H]1C[C@H](N)[C@H](O)[C@H](C)O1 [Daunorubicin, daunorubicin] |  |  |  |  |  |  |  |  |  |  | 48.1 ± 2.8 | 35.2 ± 2.9 | 12.6 ± 0.8 | 1.4 ± 0.2 | 0.02 ± 0.01 | 
